target: PIK3CG (human) (UniProt P48736); test: Inhibition of PIK3CG Kinase Activity
Sequence (P48736 whole entry, looked up): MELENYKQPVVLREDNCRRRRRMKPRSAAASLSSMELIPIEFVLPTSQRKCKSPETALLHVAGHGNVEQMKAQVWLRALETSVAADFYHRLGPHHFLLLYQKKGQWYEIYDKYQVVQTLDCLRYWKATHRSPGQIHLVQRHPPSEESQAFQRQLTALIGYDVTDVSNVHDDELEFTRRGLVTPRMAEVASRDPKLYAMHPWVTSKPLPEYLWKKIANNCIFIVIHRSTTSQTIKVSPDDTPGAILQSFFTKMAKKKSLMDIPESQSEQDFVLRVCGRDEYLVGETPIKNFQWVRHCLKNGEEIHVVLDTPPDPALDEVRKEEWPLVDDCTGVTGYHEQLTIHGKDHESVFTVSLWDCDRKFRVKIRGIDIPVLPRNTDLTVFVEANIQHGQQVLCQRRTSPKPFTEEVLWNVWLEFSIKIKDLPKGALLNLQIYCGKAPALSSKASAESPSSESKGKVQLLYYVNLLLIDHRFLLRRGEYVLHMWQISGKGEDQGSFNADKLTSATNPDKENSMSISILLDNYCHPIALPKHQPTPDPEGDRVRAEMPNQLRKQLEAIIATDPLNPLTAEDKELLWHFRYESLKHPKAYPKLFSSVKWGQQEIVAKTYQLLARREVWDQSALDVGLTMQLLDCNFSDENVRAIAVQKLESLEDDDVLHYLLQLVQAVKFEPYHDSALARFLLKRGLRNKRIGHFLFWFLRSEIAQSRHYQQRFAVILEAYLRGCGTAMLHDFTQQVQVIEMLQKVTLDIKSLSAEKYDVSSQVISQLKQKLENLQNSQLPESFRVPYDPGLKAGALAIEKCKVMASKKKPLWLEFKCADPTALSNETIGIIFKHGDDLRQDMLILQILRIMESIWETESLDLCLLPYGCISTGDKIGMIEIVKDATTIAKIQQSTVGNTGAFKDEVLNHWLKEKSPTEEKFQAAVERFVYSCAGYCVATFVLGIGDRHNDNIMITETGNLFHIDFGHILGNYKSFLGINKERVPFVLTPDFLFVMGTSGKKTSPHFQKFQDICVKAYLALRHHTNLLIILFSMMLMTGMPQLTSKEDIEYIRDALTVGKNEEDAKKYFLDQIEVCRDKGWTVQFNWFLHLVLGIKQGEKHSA

IC50, < 10 µM:
COc1ccc(-c2ccc3nc(NC(N)=O)nn3c2)cc1OC
Nc1nc2ccc(-c3cncc(S(=O)(=O)Nc4ccc(F)cc4)c3)cn2n1
Nc1nc2ccc(-c3cncc(NS(=O)(=O)Cc4ccccc4C(F)(F)F)c3)cn2n1
Cc1cccc(-c2ccc3nc(N)nn3c2)c1
CC(C)(NS(=O)(=O)c1cncc(-c2ccc3nc(N)nn3c2)c1)C(F)(F)F
COc1cccc(NS(=O)(=O)c2cncc(-c3ccc4nc(N)nn4c3)c2)c1
CCCNS(=O)(=O)c1cncc(-c2cc(F)c3nc(N)nn3c2)c1
Nc1nc2c(F)cc(-c3cncc(C(F)(F)F)c3)cn2n1
CCNS(=O)(=O)c1cncc(-c2ccc3nc(N)nn3c2)c1
Nc1nc2ccc(-c3cncc(S(=O)(=O)NCC4CC4)c3)cn2n1
CN(C(C)(C)C)S(=O)(=O)c1cncc(-c2ccc3nc(N)nn3c2)c1
Nc1nc2ccc(-c3cncc(S(=O)(=O)Nc4cccc(F)c4F)c3)cn2n1
CN1CCN(S(=O)(=O)c2cncc(-c3ccc4nc(N)nn4c3)c2)CC1
Nc1nc2ccc(-c3cccc(O)c3)cn2n1
Nc1nc2ccc(-c3cncc(NS(=O)(=O)c4ccc5ccccc5c4)c3)cn2n1
Nc1nc2ccc(-c3cncc(S(=O)(=O)Nc4cccc(F)c4)c3)cn2n1
Nc1nc2ccc(-c3cncc(NS(=O)(=O)c4cccc5ccccc45)c3)cn2n1
Nc1nc2ccc(-c3cncc(S(=O)(=O)Nc4ccc(OC(F)F)cc4)c3)cn2n1
NCCNS(=O)(=O)c1cncc(-c2ccc3nc(N)nn3c2)c1
Nc1nc2ccc(-c3cncc(NS(=O)(=O)c4ccc(Cl)cc4)c3)cn2n1
Nc1nc2ccc(-c3cncc(S(=O)(=O)Nc4ccc(F)c(F)c4)c3)cn2n1
CC(C)(C)NC(=O)c1cncc(-c2ccc3nc(N)nn3c2)c1
Nc1nc2c(F)cc(-c3cncc(S(=O)(=O)NCC(F)(F)F)c3)cn2n1
Nc1nc2ccc(-c3cccc(Cl)c3)cn2n1
Nc1nc2ccc(-c3cncc(Cl)c3)cn2n1
Nc1nc2ccc(-c3ccc4c(c3)OCO4)cn2n1
